# Patent US11110080B2, “Small molecule inhibitors of bacterial efflux pumps and methods of using same” (The Regents of the University of Colorado, a body Corporate, priority 2017, dated 2021)
# Legend:
# [1] = test system: S.Tm in RAW 264.7 macrophages; test: SAFIRE in the presence of a transcriptional (DRB) or translational (cycloheximide) inhibitor; assay type: cell-based, Salmonella enterica serovar Typhimurium; details: 100 μM DRB or 1 μM cycloheximide, no EPM
# Description: FIG. 13A depicts that RAWs were infected and treated with 25 μM of the indicated compounds using SAFIRE. From 2-18 hours post-infection, cells were treated with DMSO, 100 μM DRB, or 1 μM cycloheximide (CHX). Data for each inhibitor (DRB, CHX) treatment are normalized to cells not treated with EPMs, as differences in basal infection were observed (FIG. 10). Data are mean+SEM of three independent biological replicates, each performed in triplicate. FIG. 13B depicts that RAWs were seeded in 6-well dishes and treated in parallel with FIG. 13A. RNA was extracted at the indicated timepoints, reverse transcribed, and expression of the indicated genes was determined using qPCR. Data shown are mean+SEM of four separate wells from one replicate, and were performed in parallel with one replicate of (A). ****p<0.0001 compared to uninfected by two-way ANOVA with Dunnett's post-test.
# Therefore, the question was whether the EPMs require host transcription or translation of AMPs or other factors, for antimicrobial activity. SAFIRE was performed in the presence of a transcriptional (DRB) or translational (cycloheximide) inhibitor (FIG. 13). Since exposure to inhibitors prior to infection greatly diminished macrophage viability, DRB or cycloheximide was added 2 hours post-infection, concurrently with EPMs. […]
# S.Tm = test: Swimming assay in soft agar (proton motive force); assay type: cell-based, Salmonella enterica serovar Typhimurium; details: 50× the MIC (6.25 mM)
# Description: One way to inhibit efflux pumps is to disrupt the proton motive force, which is required for transport by some EPs. […] Bacteria were injected into the center of 0.25% agar plates, and 10 μl of compound was added to paper disks on the periphery. […] Also ampicillin and rifampicin were tested. We plotted the halo radius versus the concentration as the fold above the MIC (FIG. 9G). […] Next, it was determined whether PAβN inhibited swimming; PAβN is thought to disrupt membranes over long incubations. […] Finally, the EPMs at […] were tested (FIGS. 9D-F).
# Saturated overnight cultures were diluted to an OD600 of 0.01 in LB and 1 μL was injected into the center of low agar (0.25%) LB plates. Ten microliters of the indicated compounds were added to sterilized Whatman paper disks (diameter 0.7 cm) placed equidistant from the plate center.
# [2] = test system: bacterial inner membrane potential; test: TMRM incorporation (inner membrane potential); assay type: cell-based, Salmonella; details: 30 minutes, CCCP 1 mM
# Description: (§1) FIGS. 20A and 20B depict Bacteria treated with DMSO or EPMs [100 μM] but not CCCP [1 mM] acquire TMRM staining within 30 minutes. FIG. 20A depicts representative data from one of three independent experiments. FIG. 20B depicts median fluorescence intensity from three experiments normalized to unstained control (0). FIG. 20C depicts disk diffusion assays; the radius of the zone of growth inhibition after 16 hours of exposure to compound across a dose range. Black lines, semilog fit for the combined antibiotic data; gray lines, semilog fit for CCCP and PAβN; dotted line, limit of detection (disk radius). Average of two measurements from each image captured from one experiment representative of two independent experiments. FIGS. 20D and 20E depict nitrocefin access to the periplasm as monitored by nitrocefin [100 μM] hydrolysis in the presence of the indicated concentrations of compounds. FIG. 20D depicts absorbance 486 nm of bla+ Salmonella normalized to bla− Salmonella. […]
# To establish whether the three EPMs alter bacterial inner membrane potential, their effect on the incorporation of the voltage-sensitive dye Tetramethylrhodamine methyl ester (TMRM) was observed. […] To establish whether a longer incubation with the EPMs may compromise membrane integrity, the effect of the EPMs on bacterial swimming, an energy intensive activity was monitored over 15 hours (FIGS. 20C, 10). […]
# bacterial outer membrane = test: Nitrocefin access to the periplasm (outer membrane permeability); assay type: cell-based, Salmonella
# Description: as §1, with “Salmonella. Data is representative of 3-4 independent biological replicates. FIG. 20E depicts slope of the linear region of the A486 plot from at least three experiments. Data is normalized to A486/minute. *p<0.05, ***p<0.001, ****p<0.0001 by one-way ANOVA with Dunnett's post-test.” for “Salmonella.”
# [3] = test system: Salmonella enterica serovar Typhimurium (S.Tm) within RAW 264.7 murine macrophages; test: SAFIRE: fluorescence microscopy assay of S.Tm load within macrophages; assay type: cell-based
# Description: A high-content, high-throughput fluorescence microscopy-based screening platform to assay S.Tm load within macrophages was developed (FIG. 1A). RAW 264.7 murine macrophages, a widely used cell line for bacterial infection studies, were infected with bacteria in a standard gentamicin protection assay. The Salmonella expressing GFP driven by the sifB promoter was incubated with the compound beginning at 2 hours post-infection. At 18 hours post-infection, cells were stained with MitoTracker Red CMXRos as a marker of macrophage vitality and processed for fluorescence microscopy. Stained with DAPI. A MATLAB®-based algorithm was developed to quantify infection (FIG. 1B) and compared to statistics to describe infection. Percentage of infected cells was determined by counting the proportion of macrophages within an image with at least 2 GFP+ pixels. Infection area was calculated by normalizing the number of GFP+ pixels within a cell to the cell's total area, then averaging across all cells in an image. To evaluate the approach, 2 μg/ml rifampicin in 96-well and 384-well plates was tested in three independent replicates. The Z′-factor was employed as a measure of assay reproducibility. Numbers close to 1 indicated high reproducibility. For percentage of infected macrophages, the Z′-factor was 0.59 and 0.48 in 96-well and 384-well plates, respectively, compared with 0.66 and 0.38 for infection area. The optimal Z′-factor threshold for high-throughput screening was 0.5; however, values above 0 were considered marginal but feasible. Therefore, the percentage of infected macrophages statistic was used.
# The 14,400 compound library Maybridge HitFinder™ v11 was screened, which has been extensively screened against mammalian and microbial targets. The library was screened in duplicate at 25 μM in 384-well plates (FIG. 1C). Data were normalized using the B-score method to remove positional variation. The significance of B-scores was calculated using a modified t-test assuming an inverse gamma distribution of variances. Using a dual threshold of B-score greater than 1 and standard deviation from the mean and p-value less than 0.05, 908 compounds (6.3%) were identified that decreased or increased the percentage of infected macrophages. […] Compounds that altered infection by at least 25% in 96-well plates were considered validated hits.
# For high-throughput screening and validation, 7×10^3 macrophages in 40 μL or 3×10^4 macrophages in 100 μL were seeded in 384- or 96-well black-walled, glass-bottomed plates (Brooks Automation). […] Forty-five minutes after bacterial addition, 20 or 50 μL gentamicin was added to a final concentration of 40 μg/mL. […] At 2 hours post-infection, 200 or 500 nL compound was added using a pin tool (CyBio) to yield a final concentration of 25 μM. Each assay plate included rifampicin and DMSO controls. In some experiments, media was removed and replaced with fresh medium containing 40 μg/mL gentamicin and the indicated concentrations of drugs. At 17.5 hours post-infection, PBS containing MitoTracker Red CMXRos (Life Technologies) was added to yield a final concentration of 300 nM (384-well) or 100 nM (96-well). Thirty minutes later, 16% paraformaldehyde was added to a final concentration of 1-2% and incubated at room temperature for 15 minutes. Wells were washed twice with PBS and stained for 20 minutes with 1 μM DAPI; wells were washed twice and stored in 90% glycerol in PBS until imaging.
# High magnification images were acquired on an Olympus IX81 inverted widefield microscope. For screening imaging, three-color images were acquired at 10× or 20× on a Cellomics ArrayScan VTI (Thermo) and exported to DIB files. At least two images were taken per well for all experiments. […]
# [4] = Freeze-thaw sensitivity of DMSO solution, read out by SAFIRE; assay type: physicochemical; details: 25 μM; freeze thawed 20 times vs freshly dissolved
# Description: SAFIRE was used to quantify infection of macrophages treated with 25 μM nalidixic acid that was cherry-picked from the plates used to perform the screen (n=2), freshly dissolved in DMSO (n=3), or freshly dissolved and freeze thawed 20 times (n=3). Data are mean+SEM.
molecule,measurement,setting,value
"C[C@@H]1C[C@@H]([C@H](O)CC2CC(=O)NC(=O)C2)C(=O)[C@@H](C)C1 [cyclohexamide, cycloheximide]",basal infection of macrophages,[1],decreased basal infection
"N#CC(C#N)=NNc1cccc(Cl)c1 [CCCP, reference compound]",halo in swimming assay,S.Tm,creating a halo
same,decrease of TMRM levels versus DMSO,[2],approximately 50 fold
polymyxin B,nitrocefin access to the periplasm,bacterial outer membrane; 1 μg/mL,do not by themselves allow nitrocefin access to the periplasm
same,nitrocefin access to the periplasm,bacterial outer membrane; 5 μg/mL,high enough to allow nitrocefin access to the periplasm
OC[C@H]1O[C@@H](n2cnc3cc(Cl)c(Cl)cc32)[C@H](O)[C@@H]1O [DRB],basal infection of macrophages,[1],decreased basal infection
CCn1cc(C(=O)O)c(=O)c2ccc(C)nc21 [Nalidixic acid],"B-score, first replicate of the screen",[3]; 25 μM,−4.41
same,"B-score, second replicate of the screen",[3]; 25 μM,0.70
same,hit status in SAFIRE screen,[3]; Maybridge HitFinder v11 library screened at 25 μM,Nalidixic acid^2
same,sensitivity to freeze-thawing when dissolved in DMSO,[4],sensitive to freeze-thawing
